Counter-ions that a name gives are not always drawn. Like-named read-outs stand apart in the source and are kept apart here.
Key:
Recombinant human BChE [1] = biological target: T1, Recombinant human BChE (Homo sapiens, UniProt P06276); assay: biochemical; settings: for Emax: read-out: BChE, % Efficacy
recombinant human AChE = recombinant human AChE (Homo sapiens, UniProt P22303); assay: biochemical; format: biochemical; settings: for Emax: read-out: AChE, % Efficacy
Recombinant human BChE [2] = biological target: T1, Recombinant human BChE; format: biochemical

Chain of recombinant human AChE (P22303 32-614): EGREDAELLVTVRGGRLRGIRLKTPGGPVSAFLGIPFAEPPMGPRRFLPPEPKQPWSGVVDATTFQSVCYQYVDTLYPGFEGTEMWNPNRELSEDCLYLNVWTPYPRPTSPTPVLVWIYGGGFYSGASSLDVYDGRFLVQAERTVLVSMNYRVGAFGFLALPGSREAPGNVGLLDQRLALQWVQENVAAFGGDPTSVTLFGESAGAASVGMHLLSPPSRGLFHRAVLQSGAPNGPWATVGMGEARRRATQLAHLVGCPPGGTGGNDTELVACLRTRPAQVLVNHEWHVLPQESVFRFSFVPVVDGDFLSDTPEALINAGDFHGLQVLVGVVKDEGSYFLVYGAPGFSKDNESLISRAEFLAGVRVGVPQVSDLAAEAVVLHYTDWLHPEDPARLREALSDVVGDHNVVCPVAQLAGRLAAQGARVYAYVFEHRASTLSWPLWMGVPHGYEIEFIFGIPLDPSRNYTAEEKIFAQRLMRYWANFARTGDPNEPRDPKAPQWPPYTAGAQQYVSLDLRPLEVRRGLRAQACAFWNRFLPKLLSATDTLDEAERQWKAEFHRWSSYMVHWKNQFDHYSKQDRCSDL
T1 sequence (P06276 29-602): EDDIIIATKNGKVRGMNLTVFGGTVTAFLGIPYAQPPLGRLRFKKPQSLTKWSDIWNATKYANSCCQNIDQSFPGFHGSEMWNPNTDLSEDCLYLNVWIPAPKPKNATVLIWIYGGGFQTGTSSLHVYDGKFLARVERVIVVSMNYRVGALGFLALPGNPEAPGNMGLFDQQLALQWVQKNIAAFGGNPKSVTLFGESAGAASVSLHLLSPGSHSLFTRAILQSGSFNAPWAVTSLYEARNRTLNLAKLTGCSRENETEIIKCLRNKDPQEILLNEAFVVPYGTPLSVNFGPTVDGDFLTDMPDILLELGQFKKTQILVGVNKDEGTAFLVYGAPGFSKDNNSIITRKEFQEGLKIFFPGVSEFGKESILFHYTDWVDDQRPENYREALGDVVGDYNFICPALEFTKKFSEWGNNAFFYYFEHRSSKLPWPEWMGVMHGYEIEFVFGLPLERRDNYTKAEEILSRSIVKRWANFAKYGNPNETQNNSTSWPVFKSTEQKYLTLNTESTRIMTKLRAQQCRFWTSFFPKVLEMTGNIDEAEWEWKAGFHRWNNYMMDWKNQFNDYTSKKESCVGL

Row | Compound | Emax (Recombinant human BChE [1]) [%] | IC50 (Recombinant human BChE [1]; BChE, IC50) [µM] | AChE, IC50 (recombinant human AChE) | other results
1 | CNC(=O)Oc1ccc2c(c1)[C@]1(C)CCN(C)[C@@H]1N2C [Physostigmine] | -98.4 | – | – | Emax (recombinant human AChE): -103%
2 | CC(C)OC(=O)C1=CN(C(=O)c2ccc(F)c(F)c2)CC(C)(C)c2c1[nH]c1ccccc21 [Turofexorate isopropyl] | -98.5 | 0.29 | Inactive | AChE inhibition (recombinant human AChE): did not show AChE inhibition
3 | CN(C)C(=O)Oc1cccc([N+](C)(C)C)c1 [Neostigmine bromide] | -102 | 0.9 | – | Emax (recombinant human AChE): -94.6%
4 | O=C(CN1CCN(Cc2ccc3c(c2)OCO3)CC1)N1c2ccccc2Sc2ccccc21 [Fenoverine] | -97.3 | 0.09 | Inactive | AChE inhibition (recombinant human AChE): did not show AChE inhibition
5 | Cc1c(Cl)c(=O)oc2cc(OP(=O)(OCCCl)OCCCl)ccc12 [Haloxon] | -91.2 | 0.03 | – | IC50 (recombinant human AChE): 0.32 µM; Emax (recombinant human AChE): -101%
6 | O=c1nc(-c2ccccn2)sc2ccccc12 [BTZO 1] | – | – | Inactive | BChE, % Efficacy (Recombinant human BChE [1]): 0.49 ± 0.25 (–94.6 ± 2.01) %; IC50 (Recombinant human BChE [1]; read-out: BChE, IC50): 0.49 µM
7 | CCN(CC)C(C)CN1c2ccccc2Sc2ccccc21 (stereo not shown) [ethopropazine hydrochloride, Ethopropazine hydrochloride] | – | 1.7 ± 0.53 | – | –
8 | CN1CCc2cc(Cl)c(O)cc2[C@@H](c2cccc3c2OCC3)C1 [NNC 756] | – | – | Inactive | BChE, % Efficacy (Recombinant human BChE [1]): 0.84 ± 0.11 (–98.2 ± 6.31) %; IC50 (Recombinant human BChE [1]; read-out: BChE, IC50): 0.84 µM
9 | Diethylumbelliferyl phosphate | – | – | – | AChE, % Efficacy (recombinant human AChE): 0.42 ± 0.03 (–98.6 ± 5.66) %
10 | Clc1ccc(Nc2nc3ccccc3c3nc(C4CCCCC4)[nH]c23)cc1Cl [LUF6000] | – | – | – | inhibition against BChE in the fluorescent assay (Recombinant human BChE [2]): did not show inhibition
11 | CN(C)C(=O)Oc1cc(OC(=O)N(C)C)cc(C(O)CNC(C)(C)C)c1 (stereo not shown) [Bambuterol hydrochloride] | -91.4 | 0.03 | Inactive | –
12 | COc1cc(O)ccc1OCCNCC(O)COc1cccc2[nH]c3ccccc3c12 (stereo not shown) [4-hydroxyphenyl carvedilol] | – | – | Inactive | BChE, % Efficacy (Recombinant human BChE [1]): 0.97 ± 0.11 (–100 ± 2.04) %; IC50 (Recombinant human BChE [1]; read-out: BChE, IC50): 0.97 µM
13 | CCN(CCCc1ccccc1)CCCc1ccccc1 [Alverine citrate] | -95 | 0.38 | Inactive | –
14 | Nc1c2ccccc2nc2ccccc12 [9-Aminoacridine monohydrochloride monohydrate] | -101 | 0.16 | – | –
15 | CCCCCCCCCCC[C@@H](C[C@@H]1OC(=O)[C@H]1CCCCCC)OC(=O)[C@H](CC(C)C)NC=O [Orlistat] | -92.9 | 0.12 | – | Emax (recombinant human AChE): -80.5%
16 | Cc1c[nH]c2ncnc(N3CCC(CN)(C(=O)Nc4cccc(OC(=O)N(C)C)c4)CC3)c12 [LX-7101] | -96.6 | 0.22 | – | IC50 (recombinant human AChE): 7.71 µM; Emax (recombinant human AChE): -92.4%
17 | N#CC(c1ccnc(OCc2ccc(CN3CCOCC3)cc2)n1)c1nc2ccccc2s1 (stereo not shown) [Bentamapimod] | -98.8 | 0.33 | Inactive | AChE inhibition (recombinant human AChE): did not show AChE inhibition
18 | COc1ccc(CN(C(=O)[C@@H](N)Cc2c(C)cc(C(N)=O)cc2C)[C@@H](C)c2ncc(-c3ccccc3)[nH]2)cc1C(=O)O [Eluxadoline] | -100 | 0.34 | Inactive | –
19 | CCCCn1c(-c2ccccc2)nc(-c2ccccc2)c1CN(Cc1ccc2c(c1)OCO2)Cc1ccc2c(c1)OCO2 [NDT 9513727, N,N-Bis(1,3-benzodioxol-5-ylmethyl)-1-butyl-2,4-diphenyl-1H-imidazole-5-methanamine] | -101 | 0.21 | Inactive | AChE inhibition (recombinant human AChE): did not show AChE inhibition
